Data on 15 molecules can be found in US10246453B2, “Benzenesulfonamide compounds and their use as therapeutic agents” (Xenon Pharmaceuticals Inc., priority 2016, dated 2019).

For series [1], the target named is T1, NaV1.1 (Homo sapiens (Human), UniProt P35498). Kind of series: Sodium Influx Assay (Flux), NaV1.1. The format is cell-based. To be noted: Trex HEK293 cells, ANG2 dye; arithmetic mean.
The target of series [2] is T2, NaV1.6 (Homo sapiens (Human), UniProt Q9UQD0). The series is described as follows: Electrophysiological Assay (EP), patch voltage clamp, NaV1.6. The settings on record: HEK-293 cells, whole-cell patch clamp, inactivated state; arithmetic mean. It is filed as cell-based.
T2 sequence (Q9UQD0 whole entry): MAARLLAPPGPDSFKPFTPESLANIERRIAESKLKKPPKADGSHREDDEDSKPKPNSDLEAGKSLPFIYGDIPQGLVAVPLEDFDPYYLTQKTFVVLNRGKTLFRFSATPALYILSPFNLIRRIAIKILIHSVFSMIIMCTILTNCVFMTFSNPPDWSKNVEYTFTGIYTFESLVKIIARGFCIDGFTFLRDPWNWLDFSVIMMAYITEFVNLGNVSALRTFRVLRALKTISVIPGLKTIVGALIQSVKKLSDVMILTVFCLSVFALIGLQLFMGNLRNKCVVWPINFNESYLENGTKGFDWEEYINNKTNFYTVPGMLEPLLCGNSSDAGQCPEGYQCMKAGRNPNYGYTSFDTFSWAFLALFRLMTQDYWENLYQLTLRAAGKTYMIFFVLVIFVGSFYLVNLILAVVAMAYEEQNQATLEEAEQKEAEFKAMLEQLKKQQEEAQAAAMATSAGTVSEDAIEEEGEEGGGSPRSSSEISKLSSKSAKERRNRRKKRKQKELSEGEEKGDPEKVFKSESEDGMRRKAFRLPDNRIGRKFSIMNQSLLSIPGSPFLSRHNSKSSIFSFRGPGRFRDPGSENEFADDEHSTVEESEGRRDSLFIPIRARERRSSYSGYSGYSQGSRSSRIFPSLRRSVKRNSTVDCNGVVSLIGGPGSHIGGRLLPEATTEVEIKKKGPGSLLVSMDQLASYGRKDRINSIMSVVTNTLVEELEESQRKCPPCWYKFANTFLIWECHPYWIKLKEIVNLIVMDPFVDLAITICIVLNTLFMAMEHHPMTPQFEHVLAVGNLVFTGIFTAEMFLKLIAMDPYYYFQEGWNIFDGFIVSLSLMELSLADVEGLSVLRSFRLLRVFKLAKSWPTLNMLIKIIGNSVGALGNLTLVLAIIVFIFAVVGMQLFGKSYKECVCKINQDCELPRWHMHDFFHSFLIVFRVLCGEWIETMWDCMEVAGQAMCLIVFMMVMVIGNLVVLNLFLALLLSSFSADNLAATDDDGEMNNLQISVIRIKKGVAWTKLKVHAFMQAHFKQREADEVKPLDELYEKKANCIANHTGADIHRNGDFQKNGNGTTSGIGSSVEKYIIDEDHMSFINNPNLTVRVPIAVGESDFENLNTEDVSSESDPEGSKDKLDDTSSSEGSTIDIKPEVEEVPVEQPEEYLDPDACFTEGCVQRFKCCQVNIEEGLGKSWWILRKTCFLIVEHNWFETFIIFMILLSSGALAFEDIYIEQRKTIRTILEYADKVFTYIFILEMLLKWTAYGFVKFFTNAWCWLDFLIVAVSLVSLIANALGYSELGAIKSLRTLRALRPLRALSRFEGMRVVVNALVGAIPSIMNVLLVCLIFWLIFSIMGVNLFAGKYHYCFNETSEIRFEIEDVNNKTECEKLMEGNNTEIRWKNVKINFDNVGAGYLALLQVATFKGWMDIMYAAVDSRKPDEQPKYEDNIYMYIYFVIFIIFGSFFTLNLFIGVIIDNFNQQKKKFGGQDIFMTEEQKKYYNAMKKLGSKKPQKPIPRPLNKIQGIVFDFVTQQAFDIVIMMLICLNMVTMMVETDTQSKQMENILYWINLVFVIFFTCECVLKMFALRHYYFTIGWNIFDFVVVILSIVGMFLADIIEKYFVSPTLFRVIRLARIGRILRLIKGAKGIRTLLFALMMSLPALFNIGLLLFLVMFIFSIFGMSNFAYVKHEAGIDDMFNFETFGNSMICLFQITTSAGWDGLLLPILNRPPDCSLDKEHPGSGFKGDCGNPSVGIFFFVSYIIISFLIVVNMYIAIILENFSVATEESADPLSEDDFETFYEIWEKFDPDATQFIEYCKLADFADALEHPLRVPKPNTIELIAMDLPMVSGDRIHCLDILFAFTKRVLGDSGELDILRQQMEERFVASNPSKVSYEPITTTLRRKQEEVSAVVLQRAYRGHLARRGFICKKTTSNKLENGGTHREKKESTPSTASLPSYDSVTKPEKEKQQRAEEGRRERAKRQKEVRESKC
Series [3] deals with T1, NaV1.1. Kind of series: Electrophysiological Assay (EP), patch voltage clamp, NaV1.1. The settings on record: HEK-293 cells, whole-cell patch clamp, inactivated state; arithmetic mean. The format is cell-based. A general note: The patch-clamp technique gives a direct electrical read-out from membranes.
Series [4] has as its target T2, NaV1.6. Kind of series: Sodium Influx Assay (Flux), NaV1.6. To be noted: read-out: Flux NaV1.6 IC50; Trex HEK293 cells, ANG2 dye; arithmetic mean.
A further series deals with NaV1.5 (Homo sapiens (Human), UniProt Q14524). The series is described as follows: Sodium Influx Assay (Flux), NaV1.5. The settings on record: read-out: Flux NaV1.5 IC50; Trex HEK293 cells, ANG2 dye; arithmetic mean.
NaV1.5, sequence (Q14524 other isoform, or with tags, fused parts or gaps): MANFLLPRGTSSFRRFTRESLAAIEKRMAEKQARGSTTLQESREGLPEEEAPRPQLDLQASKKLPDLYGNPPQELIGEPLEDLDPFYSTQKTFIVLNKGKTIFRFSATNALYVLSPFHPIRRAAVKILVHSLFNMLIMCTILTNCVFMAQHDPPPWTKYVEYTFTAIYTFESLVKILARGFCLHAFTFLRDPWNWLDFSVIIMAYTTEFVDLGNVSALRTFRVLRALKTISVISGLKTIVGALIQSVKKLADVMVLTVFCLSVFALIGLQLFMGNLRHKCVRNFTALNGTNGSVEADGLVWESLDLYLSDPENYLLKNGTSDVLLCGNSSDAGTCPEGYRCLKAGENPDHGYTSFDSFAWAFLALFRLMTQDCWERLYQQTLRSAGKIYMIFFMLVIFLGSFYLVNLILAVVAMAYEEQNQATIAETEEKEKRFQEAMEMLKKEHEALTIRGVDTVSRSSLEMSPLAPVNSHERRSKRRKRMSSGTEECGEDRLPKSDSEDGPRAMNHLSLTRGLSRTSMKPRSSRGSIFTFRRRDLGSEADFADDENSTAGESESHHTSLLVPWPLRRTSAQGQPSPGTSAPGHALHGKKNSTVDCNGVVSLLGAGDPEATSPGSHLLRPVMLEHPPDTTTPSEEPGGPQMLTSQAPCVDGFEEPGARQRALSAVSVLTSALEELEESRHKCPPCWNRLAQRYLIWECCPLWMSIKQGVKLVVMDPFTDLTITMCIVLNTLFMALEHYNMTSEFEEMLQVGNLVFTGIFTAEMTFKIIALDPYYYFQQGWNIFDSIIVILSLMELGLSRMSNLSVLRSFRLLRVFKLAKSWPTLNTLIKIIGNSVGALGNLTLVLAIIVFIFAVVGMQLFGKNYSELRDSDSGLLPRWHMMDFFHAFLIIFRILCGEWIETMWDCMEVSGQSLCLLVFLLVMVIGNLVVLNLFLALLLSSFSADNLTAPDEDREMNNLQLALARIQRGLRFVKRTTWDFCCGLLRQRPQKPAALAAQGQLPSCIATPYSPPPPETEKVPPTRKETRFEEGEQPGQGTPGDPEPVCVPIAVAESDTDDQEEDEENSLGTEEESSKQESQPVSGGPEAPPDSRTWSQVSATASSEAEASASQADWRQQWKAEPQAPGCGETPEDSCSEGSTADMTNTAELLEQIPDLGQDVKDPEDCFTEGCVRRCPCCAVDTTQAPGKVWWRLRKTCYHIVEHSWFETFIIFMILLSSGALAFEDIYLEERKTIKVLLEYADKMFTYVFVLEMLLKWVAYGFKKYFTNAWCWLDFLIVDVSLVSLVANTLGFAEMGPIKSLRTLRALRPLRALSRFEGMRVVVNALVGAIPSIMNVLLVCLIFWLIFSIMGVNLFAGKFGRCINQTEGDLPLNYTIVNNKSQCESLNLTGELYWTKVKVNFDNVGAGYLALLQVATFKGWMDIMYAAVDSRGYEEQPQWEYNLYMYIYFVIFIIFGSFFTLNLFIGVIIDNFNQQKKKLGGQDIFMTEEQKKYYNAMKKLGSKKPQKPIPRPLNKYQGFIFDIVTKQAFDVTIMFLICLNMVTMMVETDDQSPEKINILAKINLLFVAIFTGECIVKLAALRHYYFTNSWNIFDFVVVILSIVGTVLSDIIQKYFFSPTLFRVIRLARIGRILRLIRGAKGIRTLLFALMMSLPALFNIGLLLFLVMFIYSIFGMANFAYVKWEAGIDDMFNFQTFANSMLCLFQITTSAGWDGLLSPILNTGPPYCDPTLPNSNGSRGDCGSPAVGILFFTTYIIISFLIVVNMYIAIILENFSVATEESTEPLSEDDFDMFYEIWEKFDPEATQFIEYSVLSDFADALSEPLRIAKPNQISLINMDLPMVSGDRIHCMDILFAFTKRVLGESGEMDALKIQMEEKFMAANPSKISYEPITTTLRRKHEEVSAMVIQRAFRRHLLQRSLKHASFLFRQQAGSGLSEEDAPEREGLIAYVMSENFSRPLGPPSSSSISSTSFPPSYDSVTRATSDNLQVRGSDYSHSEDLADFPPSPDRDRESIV

Molecules are shown by their SMILES. Counter-ions that a name gives are not always drawn.

What is called IC50 is the concentration needed to halve the response being measured.

Regarding `Cc1cccc(CN2CC[C@@H](Nc3cc(F)c(S(=O)(=O)Nc4nccs4)cc3Cl)C2)c1` [Example 88, (R)-5-chloro-2-fluoro-4-(1-(3-methylbenzyl)pyrrolidin-3-ylamino)-N-(thiazol-2-yl)benzenesulfonamide], the IC50 against NaV1.1 [1] amounted to 1590 nM; against NaV1.6 [2], 39 nM; against NaV1.1 [3], 1240 nM; at NaV1.6 [4] it was 381 nM; on NaV1.5 it was 5910 nM.
Taken in the same sequence, the figures for `CN(c1cc(F)c(S(=O)(=O)Nc2cscn2)c(F)c1Cl)[C@H]1CCN(Cc2ccccc2)C1` [Example 102, (S)-4-((1-benzylpyrrolidin-3-yl)(methyl)amino)-3-chloro-2,6-difluoro-N-(thiazol-4-yl)benzenesulfonamide formate] were > 30000 nM, 152 nM, > 10000 nM, 703 nM and > 30000 nM.
On to `O=S(=O)(Nc1ncns1)c1ccc(OC2CCN(Cc3ccccc3)CC2)c(Cl)c1` [Example 100, 4-(1-benzylpiperidin-4-yloxy)-3-chloro-N-(1,2,4-thiadiazol-5-yl)benzenesulfonamide 2,2,2-trifluoroacetate], for which the IC50 against NaV1.1 [1] is 30000 nM; against NaV1.6 [2], 164 nM; against NaV1.1 [3], > 10000 nM; at NaV1.6 [4] it was 190 nM; on NaV1.5, > 30000 nM.
Take `O=S(=O)(Nc1cscn1)c1c(F)cc(OC2CCN(Cc3ccccc3)CC2)c(Cl)c1F` [Example 105, 4-((1-benzylpiperidin-4-yl)oxy)-3-chloro-2,6-difluoro-N-(thiazol-4-yl)benzenesulfonamide formate]: the IC50 is 27600 nM against NaV1.1 [1]; 151 nM at NaV1.6 [2]; > 10000 nM on NaV1.1 [3]; 268 nM at NaV1.6 [4]; 17600 nM on NaV1.5.
Take `CN(c1cc(F)c(S(=O)(=O)Nc2cscn2)cc1Cl)[C@H]1CCN([C@@H]2CCc3ccccc32)C1` [Example 246, 5-chloro-4-(((S)-1-((R)-2,3-dihydro-1H-inden-1-yl)pyrrolidin-3-yl)(methyl)amino)-2-fluoro-N-(thiazol-4-yl)benzenesulfonamide 2,2,2-trifluoroacetate]: the IC50 is 8510 nM against NaV1.1 [1]; 1030 nM against NaV1.6 [2]; > 10000 nM at NaV1.1 [3]; 629 nM at NaV1.6 [4]; 18700 nM at NaV1.5.
Regarding `CC1(Nc2ccc(S(=O)(=O)Nc3nccs3)cc2Cl)CN(Cc2ccccc2)C1` [Example 25, 4-((1-benzyl-3-methylazetidin-3-yl)amino)-3-chloro-N-(thiazol-2-yl)benzenesulfonamide 2,2,2-trifluoroacetate], the IC50 was 5760 nM on NaV1.1 [1]; 138 nM at NaV1.6 [2]; > 10000 nM at NaV1.1 [3]; 569 nM at NaV1.6 [4]; 24700 nM on NaV1.5.
As for `CN(c1ccc(S(=O)(=O)Nc2cscn2)cc1Cl)[C@H]1CCN(Cc2ccccc2)C1` [Example 41, (S)-4-((1-benzylpyrrolidin-3-yl)(methyl)amino)-3-chloro-N-(thiazol-4-yl)benzenesulfonamide 2,2,2-trifluoroacetate], the IC50 was 6640 nM at NaV1.1 [1]; 748 nM at NaV1.6 [2]; > 10000 nM against NaV1.1 [3]; 1040 nM on NaV1.6 [4]; 9010 nM on NaV1.5.
With `O=S(=O)(Nc1nccs1)c1cc(Cl)c(N[C@H]2CCN(Cc3ccccc3)C2)cc1F` [Example 87, (S)-4-(1-benzylpyrrolidin-3-ylamino)-5-chloro-2-fluoro-N-(thiazol-2-yl)benzenesulfonamide], the IC50 at NaV1.1 [1] is 5960 nM; against NaV1.6 [2] it was 393 nM; against NaV1.1 [3], 7280 nM; at NaV1.6 [4], 744 nM; on NaV1.5, 14300 nM.
`O=S(=O)(Nc1nccs1)c1ccc(N[C@@H]2CCN(Cc3ccccc3)C2)c(Cl)c1` [Example 79, (R)-4-(1-benzylpyrrolidin-3-ylamino)-3-chloro-N-(thiazol-2-yl)benzenesulfonamide]: the IC50 was 6340 nM on NaV1.1 [1]; 138 nM at NaV1.6 [2]; > 10000 nM against NaV1.1 [3]; 570 nM on NaV1.6 [4]; > 30000 nM at NaV1.5.
Taken in the same sequence, the figures for `COc1ccccc1CN1CC[C@H](N(C)c2cc(F)c(S(=O)(=O)Nc3cscn3)cc2Cl)C1` [Example 206, (S)-5-chloro-2-fluoro-4-((1-(2-methoxybenzyl)pyrrolidin-3-yl)(methyl)amino)-N-(thiazol-4-yl)benzenesulfonamide] were 22500 nM, 462 nM, > 10000 nM, 532 nM and > 30000 nM.
Take `CN(c1cc(F)c(S(=O)(=O)Nc2cscn2)cc1Cl)[C@H]1CCN(Cc2cccc(C(F)F)c2)C1` [Example 193, (S)-5-chloro-4-((1-(3-(difluoromethyl)benzyl)-pyrrolidin-3-yl)(methyl)amino)-2-fluoro-N-(thiazol-4-yl)benzene-sulfonamide]: the IC50 against NaV1.1 [1] was 3570 nM; at NaV1.6 [2], 330 nM; at NaV1.1 [3] it was > 10000 nM; on NaV1.6 [4], 774 nM; at NaV1.5, 9020 nM.
Regarding `CN(c1ccc(S(=O)(=O)Nc2nccs2)cc1Cl)[C@H]1CCN(Cc2ccccc2)C1` [Example 80, (S)-4-((1-benzylpyrrolidin-3-yl)(methyl)amino)-3-chloro-N-(thiazol-2-yl)benzenesulfonamide], the IC50 at NaV1.1 [1] is 12200 nM; at NaV1.6 [2], 124 nM; against NaV1.1 [3], > 10000 nM; on NaV1.6 [4] it was 378 nM; on NaV1.5, 29100 nM.
Taken in the same sequence, the figures for `CN(c1ccc(S(=O)(=O)Nc2cscn2)cc1Cl)[C@H]1CCN(Cc2cccc(C(F)F)c2)C1` [Example 253, (S)-3-chloro-4-((1-(3-(difluoromethyl)benzyl)pyrrolidin-3-yl)(methyl)amino)-N-(thiazol-4-yl)benzenesulfonamide formate] were 2670 nM, 491 nM, 4760 nM, 756 nM and 2520 nM.
With `C[C@H](c1ccccc1)N1CC[C@H](N(C)c2ccc(S(=O)(=O)Nc3cscn3)cc2Cl)C1` [Example 251, 3-chloro-4-(methyl((S)-1-((R)-1-phenylethyl)pyrrolidin-3-yl)amino)-N-(thiazol-4-yl)benzenesulfonamide 2,2,2-trifluoroacetate], the IC50 on NaV1.1 [1] was 7450 nM; against NaV1.6 [2], 412 nM; at NaV1.1 [3] it was > 10000 nM; at NaV1.6 [4], 1500 nM; at NaV1.5 it was 7320 nM.
Consider `CN(c1cc(F)c(S(=O)(=O)Nc2cccc(F)n2)cc1Cl)[C@H]1CCN(C(C)(C)c2ccccc2)C1` [Example 260, (S)-5-chloro-2-fluoro-N-(6-fluoropyridin-2-yl)-4-(methyl(1-(2-phenylpropan-2-yl)pyrrolidin-3-yl)amino)benzenesulfonamide 2,2,2-trifluoroacetate], for which the IC50 worked out at 7350 nM on NaV1.1 [1]; 842 nM against NaV1.6 [2]; 9640 nM against NaV1.1 [3]; 1680 nM at NaV1.6 [4]; 10100 nM on NaV1.5.
